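Test compounds were applied to cells in 96-well plates for 48 hours at 5 doses. TGI denotes the concentration required for complete inhibition of growth.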
Assays:
Test in all cases: growth of human tumour cells (NCI), 48 h
OVCAR-4 ovarian = test system: OVCAR-4 ovarian
MDA-MB-435 = test system: MDA-MB-435
SF-539 CNS = test system: SF-539 CNS
HS 578T breast = test system: HS 578T breast
BT-549 breast = test system: BT-549 breast
NCI/ADR-RES ovarian = test system: NCI/ADR-RES ovarian
SK-OV-3 ovarian = test system: SK-OV-3 ovarian
NCI-H460 lung = test system: NCI-H460 lung
UACC-62 melanoma = test system: UACC-62 melanoma
PC-3 prostate = test system: PC-3 prostate

Compound | TGI (OVCAR-4 ovarian) | TGI (MDA-MB-435) | TGI (SF-539 CNS) | TGI (HS 578T breast) | TGI (BT-549 breast) | TGI (NCI/ADR-RES ovarian) | TGI (SK-OV-3 ovarian) | TGI (NCI-H460 lung) | TGI (UACC-62 melanoma) | TGI (PC-3 prostate)
O=C1C=CC=C/C1=C1\N=C(c2ccccc2OCC(=O)c2ccccc2)SS1 | > 100 µM | > 100 µM | > 100 µM | > 100 µM | > 100 µM | > 100 µM | > 100 µM | > 100 µM | > 100 µM | 
CO[C@H]1SC[C@H](OC(C)=O)[C@H](OC(C)=O)[C@H]1OC(C)=O | > 100 µM | > 100 µM | > 100 µM | > 100 µM | > 100 µM | > 100 µM |  | > 100 µM | > 100 µM | 
C=C(C)OCOCCOC |  | > 100 µM | > 100 µM | > 100 µM | > 100 µM | > 100 µM | > 100 µM | > 100 µM | > 100 µM | > 100 µM
CC1=NN(c2nc(N)nc(-c3sccc3N)n2)C(C)(C)C1 | > 100 µM | > 100 µM | > 100 µM | > 100 µM | > 100 µM | > 100 µM | > 100 µM | > 100 µM | > 100 µM | 
Cc1c(CN2CCN(C)CC2)c(CN2CCN(C)CC2)c(C)n1-c1ccc(Cl)cc1 | > 100 µM | 62.7 µM |  | 70.6 µM | > 100 µM | > 100 µM | > 100 µM | > 100 µM | 33.9 µM | > 100 µM
O=S(=O)(O)c1ccc(N=Nc2ccc(N=Nc3ccc(/C=C/c4ccc(N=[N+]([O-])c5ccc(/C=C/c6ccc(N=Nc7ccc(N=Nc8ccc(S(=O)(=O)O)cc8)cc7)cc6S(=O)(=O)O)c(S(=O)(=O)O)c5)cc4S(=O)(=O)O)c(S(=O)(=O)O)c3)cc2)cc1 | > 100 µM |  | > 100 µM |  |  | > 100 µM | > 100 µM | > 100 µM | > 100 µM | 
Cc1cc(C)c2c(=O)cc(-c3cccc(F)c3)[nH]c2n1 | > 100 µM |  | 4.54 µM | 3.36 µM | > 22 µM |  | > 100 µM | 2.45 µM |  | > 49.1 µM
COc1cc(CC(C)NC(C)=O)cc(OC)c1 (centres undefined) |  | > 100 µM | > 100 µM | > 100 µM | > 100 µM | > 100 µM | > 100 µM | > 100 µM | > 100 µM | > 100 µM
Cc1[nH]c(=O)nc(NCCNCCO)c1C(=O)Nc1cccc2cc3ccccc3cc12 | > 100 µM | > 100 µM | > 100 µM | > 100 µM | > 100 µM | > 100 µM |  | > 100 µM | > 100 µM | > 100 µM
Cn1c(=O)c2c(nc3n(Cc4ccccc4)c(=O)c(NCCCBr)cn23)n(C)c1=O | > 100 µM | > 100 µM |  | > 100 µM | > 100 µM | > 100 µM | 97.3 µM | > 100 µM | > 100 µM | > 100 µM
Cc1cc2ncn(C3CCCCO3)c2cc1C (centres undefined) | > 100 µM | > 100 µM | > 100 µM | > 100 µM | > 100 µM | > 100 µM | > 100 µM |  | > 100 µM | > 100 µM
CS(=O)(=O)Nc1ccc2c(c1)N(S(C)(=O)=O)CC2CCl (centres undefined) | > 100 µM | > 100 µM | > 100 µM | > 100 µM | > 100 µM | > 100 µM |  | > 100 µM | > 100 µM | > 100 µM
COc1ccc(Nc2nc(N)c(C(=O)c3c[nH]c4ccccc34)s2)cc1 | > 100 µM |  | > 36.9 µM |  | > 40.5 µM | 19.4 µM | > 100 µM | 6.83 µM | > 100 µM | > 100 µM
C=C1N(C=O)C(C)(C)N(O)C1(C)C | > 100 µM | > 100 µM | > 100 µM | > 100 µM |  | > 100 µM | > 100 µM | > 100 µM | > 100 µM | > 100 µM
COc1ccccc1CN=C1Nc2ccncc2S(=O)(=O)N1c1ccccc1 | > 100 µM | > 100 µM |  | > 100 µM | > 100 µM | > 100 µM | > 100 µM | > 100 µM | > 100 µM | > 100 µM
C=C1C(OC2O[C@@H]3O[C@@]4(C)CC[C@H]5[C@H](C)CC[C@@H](C2=C)[C@@]35O4)O[C@@H]2O[C@@]3(C)CC[C@H]4[C@H](C)CC[C@@H]1[C@@]24O3 (some centres undefined) | > 50 µM | > 50 µM | > 50 µM | > 50 µM | > 50 µM |  | > 50 µM | > 50 µM | > 50 µM | > 50 µM
Cc1cc(C)nc(NS(=O)(=O)c2ccc(Nc3c4ccccc4nc4c(C(=O)N5CCN(CCOS(C)(=O)=O)CC5)cccc34)cc2)n1 | > 100 µM |  | > 100 µM |  |  |  | > 100 µM | > 100 µM | > 100 µM | 
N#C/C(=C/n1c(=S)[nH]c2ccc([N+](=O)[O-])cc21)C(N)=O | > 100 µM | > 100 µM | > 100 µM | > 100 µM |  | > 100 µM | > 100 µM | > 100 µM | > 100 µM | > 100 µM
CSC(SC)=C(C(=O)O)P(=O)(O)O | > 100 µM |  | > 100 µM | > 100 µM |  | > 100 µM | > 100 µM | > 100 µM | > 100 µM | > 100 µM
COC(=O)C1(CCCCCBr)CCCCCCCCCCC1=O (centres undefined) | > 100 µM | 87.5 µM | > 100 µM | > 100 µM |  | > 100 µM | > 100 µM | > 100 µM | > 100 µM | > 100 µM
COC(=O)C1C(C(=O)OC)C2(OC(c3ccc(Cl)cc3)=CC2=O)C12OC(c1ccc(Cl)cc1)=CC2=O (centres undefined) | 64.1 µM | > 100 µM | 39.2 µM | > 100 µM | 42.5 µM |  | > 100 µM | 41.5 µM | 32.8 µM | 55.8 µM
COc1cc(C(c2c(O)c3ccccc3oc2=O)c2c(O)c3ccccc3oc2=O)cc(Br)c1O | 30.9 µM | 51.6 µM | 33.7 µM | 51.8 µM | 32.5 µM | 53.1 µM | 35.8 µM |  | 29.6 µM | 35 µM
COc1ccc2nc(/C(N)=C\C#N)ccc2c1 | > 100 µM | > 100 µM | > 100 µM | > 100 µM |  | > 100 µM |  | > 100 µM | > 100 µM | > 100 µM
